Row | Compound | melting point [°C]
1 | Cc1cccc(C(C(O)C(C)(C)C)n2ccnc2)c1 (stereo not given) | 126
2 | COC(=O)CCc1cc2nc(Cl)ccc2n1S(=O)(=O)c1ccc2c(c1)CCN2C(C)=O | 66
3 | CC(C)NC1=NS(=O)(=O)c2cc([N+](=O)[O-])ccc2N1 | 311 to 313
4 | O=C(O)c1nc2cc(N3CCN(c4ccc(F)cc4)CC3)c([N+](=O)[O-])cc2[nH]c1=O | 236 to 238
5 | COc1cccc2c1CCC2C(=O)O (stereo not given) | 117 to 118
6 | Cc1ccc(Cn2nc(C(=O)O)c(C)c2-c2ccc(Cl)cc2)cc1Cl | 162
7 | Cc1c(NC(=O)c2ccc(-c3ccc(F)cc3)cc2)ccc2cc(CN3CCCC3C3CCCCC3)cnc12 (stereo not given) | 204 to 205
8 | COc1ccc2c(c1)[nH]c1c(C)nc3c(c12)C(=O)CC(C)(C)C3 | 250 to 252
9 | COc1cccc2c1C(C#N)C2 (stereo not given) | 58 to 59
10 | COCCCNC(=O)C1CCN(C(=O)c2[nH]c(C)c(-c3nc4ccc(C(=O)c5ccccc5)cc4[nH]3)c2C)CC1 | 289 to 291
11 | CC(=O)Nc1c(F)cc(F)cc1SCC#N | 148 to 149
12 | Cc1cc2c(-c3ccccc3F)nc(=O)n(C)c2s1 | 119 to 121
13 | Cc1nc(C2OC(CO)C(O)C2O)c(N)nc1OCc1ccccc1 (stereo not given) | 152 to 153
14 | CC1=N/C(=C\c2c[nH]c3ncccc23)C(=O)N1C(C)C | 207
15 | CCCCn1ccc(-c2ccc3c(ccn3[C@H]3CC[C@H](O)CC3)c2)c(Cl)c1=O | 191
16 | CN(C#N)C(=O)CCCCCCCCC(=O)N(C)C#N | 83.4 to 84
17 | Cc1ccc(-c2cccc(C(=O)O)c2)cc1 | 182 to 187
18 | COc1ccc(C2Sc3cccc4cccc(c34)NC(=O)C2O)cc1 (stereo not given) | 218 to 219
19 | O=C(N[C@@H]1C=CC[C@H]1O)OCC(Cl)(Cl)Cl | 82 to 84
20 | O=C(NC12CC3CC(CC1C3)C2)c1ccncc1C(c1ccc(O)cc1)c1ccc(O)cc1 | 218 to 220
21 | COC(=O)Cc1ccc(OCCN2CCN(c3cc(Cl)nnc3Cl)CC2)cc1 | 84 to 86
22 | CCCc1ccc2nc(SCC)c(S(N)(=O)=O)n2n1 | 176 to 177
23 | CN(C)S(=O)(=O)c1cccc2c1Sc1ccc(O)cc1N2CCCN1CCC(CCO)CC1 | 163 to 165
24 | COc1cc(C(=O)O)ccc1-c1ccncc1 | 239 to 241
25 | CC1(C)OC(c2cccs2)CN1C(=O)C(Cl)Cl (stereo not given) | 104 to 105

Row | Compound | melting point [°C]
26 | Cc1nc2sc3ccccc3n2n1 | 75 to 76
27 | COC(=O)C(C(=O)OC)C(Cc1cc(Cl)ccc1[N+](=O)[O-])c1ccc(OC)cc1 (stereo not given) | 117 to 120
28 | Cc1cccc(-c2n[nH]cc2-c2ccc(F)c(-c3c[nH]c(C(C)(C)O)n3)c2)n1 | 135 to 137
29 | CCCc1nn(-c2ccc(C(F)(F)F)cn2)cc1CCCC=O | 71 to 72
30 | Cc1cc(C#N)sc1-c1ccc2c(c1)C(C)(C)C(=O)N2 | 192 to 193
31 | COC(=O)c1cnc(C(=O)O)cn1 | 183 to 185
32 | Cc1ccc(Sc2cncc3sccc23)cc1 | 94 to 95
33 | CCOC(=O)C(O)CSc1ccc(-c2ccccc2)cc1 (stereo not given) | 102
34 | Cc1cccc([N+](=O)[O-])c1CO | 67 to 68
35 | CNCCc1ccc(CCC(=O)O)cc1 | 211 to 212
36 | CC(C(=O)n1c(=O)oc2ccccc21)C(O)C(C)(C)C (stereo not given) | 90 to 92
37 | CC1(C)Cc2c(Cl)c([N+](=O)[O-])cc(C(=O)O)c2O1 | 260 to 262
38 | O=c1ccn(-c2cccc(C(F)(F)F)c2)nc1-c1ccnn1Cc1ccccc1 | 156 to 157
39 | CC(C)(C)OC(=O)[C@H]1CCCN1 | 51.5 to 53.2
40 | CCCn1nc2c(N)nc3ccccc3c2c1CCCC1=CCN(Cc2ccccc2)C1 | 150 to 152
41 | O=C(O)C1CSC(c2ccccc2OCCCO[N+](=O)[O-])N1 (stereo not given) | 131 to 134
42 | CC(O)C#Cc1cccc(NC(=O)Nc2ncc(C(C)C)s2)c1 (stereo not given) | 71 to 73
43 | O=S(=O)(Nc1ccccc1O)c1ccccc1 | 140
44 | COc1ccc2c(c1)S(=O)(=O)c1ccccc1C(=S)N2 | 250 to 252
45 | O=C(O)Cc1cccc(OCCCc2cn(-c3ccc(C(F)(F)F)cn3)nc2-c2ccccc2)c1 | 132 to 133
46 | Cc1nc(C(C)(C)C)c(O)c(C(C)(C)C)n1 | 62 to 65
47 | CC(C)c1cc(C(C)(C)C)cc(C=O)c1O | 128 to 130
48 | CCc1ccc([N+](=O)[O-])cc1CNC(C)=O | 123 to 128
49 | CSc1nnc(-c2ccc3occ(-c4ccc(OC(F)(F)F)cc4)c3c2)o1 | 138 to 139
50 | CCCCCCCCCCCCCc1nc(N)no1 | 90 to 91

Row | Compound | melting point [°C]
51 | CN(C)CC(O)c1cc(-c2ccccc2)on1 (stereo not given) | 117 to 119
52 | C/N=C1\N(C)C(=O)C(=Cc2c[nH]c3ccccc23)N1C | 241 to 242
53 | CCOC(=O)c1nn(-c2ccc([N+](=O)[O-])cc2)c2c1CCCC2 | 173
54 | C[C@@H]1O[C@](C#CC2CC2)(C(F)(F)F)c2cc(F)ccc2NC1=O (relative stereo) | 184 to 185
55 | Fc1ccc(-c2cc(CCC#Cc3ccccn3)on2)cc1 | 83 to 84
56 | COc1cc(NC(=O)c2ccccc2)c(=O)[nH]c1C | 247 to 248
57 | CC1(C)OC(O)C(Oc2ccc(F)c(F)c2)=C1c1ccc(S(C)(=O)=O)cc1 (stereo not given) | 151
58 | CCOC(=O)C(C)c1ccc2nc(-c3ccccc3)oc2c1 (stereo not given) | 46
59 | O=C(O)C1Sc2ccccc2-c2[nH]c3ccccc3c21 (stereo not given) | 142
60 | COc1ccc2c(c1)C(c1ccc(OCCN3CCCCC3)cc1)c1c-2ccc2cc(OC)ccc12 (stereo not given) | 162 to 164
61 | C#CCNC(=O)c1ncn2c1[C@@H]1CCN1C(=O)c1ccccc1-2 | 214 to 215
62 | Cc1cccc(NC(=O)NC2N=C(C(C)C)c3ccccc3N(CC(=O)N3CC4CCC(CC4)C3)C2=O)c1 (stereo not given) | 123 to 126
63 | CC(=O)N1N=C(c2ccc(N)c(C)c2)c2cc3c(cc2C[C@H]1C)OCO3 | 123 to 130
64 | Nc1nc(N)c(-c2ccc(Cl)cc2Cl)c(CBr)n1 | > 270
65 | CCOc1cc(-n2c(=O)cc(C(F)(F)F)n(C)c2=O)c(F)cc1Cl | 118 to 121
66 | Cc1cccc(-c2nc3ccccc3n2Cc2ccccc2Cl)c1 | 117
67 | COc1ccc2nc(SC(C#N)c3ncc(C)c(OC)c3C)[nH]c2c1 (stereo not given) | 193 to 197
68 | CCOC(=O)c1cc(-c2csc(-c3ccnc(N(C)C)c3)n2)c(=O)[nH]c1C(C)C | > 230
69 | O=C(Nc1ccc(C(F)(F)F)cc1)Nc1cccc(Oc2ccccc2)c1 | 178 to 181
70 | COc1ccc(-c2nc3cc(Cl)c(Cl)cc3[nH]2)cc1[N+](=O)[O-] | 250
71 | CC(C)c1ccc(S(=O)(=O)n2c(CBr)cc3cc(C(F)(F)F)ccc32)cc1 | 100
72 | CCOC(=O)c1cnc2n(c1=O)C(C)CCC2=NN (stereo not given) | 199 to 200
73 | CCOCc1nc2c(N)nc3cc(-c4cncc(CO)c4)ccc3c2n1CC(C)C | 211 to 212
74 | CCOC(=O)C(Cc1c([N+](=O)[O-])ccc(C)c1C)(NC(C)=O)C(=O)OCC | 112 to 113
75 | O=C(O)c1ccc(-c2n[nH]c3c2Cc2ccccc2-3)cc1 | > 320

— a melting point compilation (Tetko et al.; mined from patent text by program, amines drawn as free bases though some values may be those of a salt)
